Values of other authors, collected in patent EP4026540A1, “A FILM COATED TABLET COMPRISING APIXABAN” (SANOVEL ILAC SANAYI VE TICARET A.S., priority 2021, dated 2022).

Conditions: single 10 mg dose

oral bioavailability: about 50%
Structure (SMILES): COc1ccc(-n2nc(C(N)=O)c3c2C(=O)N(c2ccc(N4CCCCC4=O)cc2)CC3)cc1 [apixaban, 1-(4-methoxyphenyl)-7-oxo-6-[4-(2-oxopiperidin-1-yl)phenyl]-4,5,6,7-tetrahydro-1H-pyrazolo[3,4-c]pyridine-3-carboxamide]
